{"source": "patent US8487117B2", "about": "“Atropisomers of (hydroxyalkyl) pyrrole derivatives” (Exelixis, Inc., priority 2008, dated 2013)", "key": {"[1]": {"target": "T1, human mineralocorticoid receptor (hMR), GAL4-hMR receptor (Homo sapiens, UniProt P08235)", "T1 construct": "expressed in transfected cells; host or cells: HEK293", "T1 sequence (P08235 726-964 limits assumed)": "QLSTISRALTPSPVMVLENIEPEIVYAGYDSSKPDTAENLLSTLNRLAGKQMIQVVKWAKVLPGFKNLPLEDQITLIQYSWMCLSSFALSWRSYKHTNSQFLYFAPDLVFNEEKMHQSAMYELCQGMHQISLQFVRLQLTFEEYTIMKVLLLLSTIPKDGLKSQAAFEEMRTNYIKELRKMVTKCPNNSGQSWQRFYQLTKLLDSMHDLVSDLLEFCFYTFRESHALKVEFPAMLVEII", "assay": "GAL4-hMR-LBD luciferase reporter assay in HEK293 cells with 1 nM aldosterone (mineralocorticoid receptor antagonistic action)", "format": "cell-based", "conditions": "for IC50: concentration which shows Imax/2, HEK293, GAL4-hMR-LBD, luciferase, with 1 nM aldosterone, read-out: ICmax50; for Imax: maximum value, DMSO control = 0%, 1 nM aldosterone control = 100%, HEK293 luciferase reporter", "description": "A plasmid pM-hMR-LBD expressing GAL4-hMR receptor, which has a ligand binding domain (LBD, corresponds to approximately 308 amino acids at the carboxy terminus) of human mineralocorticoid receptor (hMR, NM_000901) bonded to a DNA binding domain of yeast transcription factor GAL4 (corresponding to 147 amino acids at the amino terminus), was prepared. Reporter assay was conducted by using a reporter plasmid (such as STRATAGENE CLONING SYSTEMS, pFR-Luc) including a luciferase gene, having a sequence (UAS sequence) which binds to the DNA binding domain of GAL4.\nThe plasmid pM-hMR-LBD and the reporter plasmid as obtained above were gene transferred into renal cell line HEK293 of human fetus by lipofection. On the next day, cells were collected by trypsin treatment, and were dispensed with DMEM culture medium containing 5% of FBS treated by activated charcoal, to a white 96-well plate (Costar) with the amount of 95 microliter per well.\nThe Test Compounds were used by dissolving them in dimethyl sulfoxide at a predetermined concentration, and the test compounds suitably diluted with culture media were added to the cells on the white 96-well plate so that the final concentration becomes 0.1%. When adding the Test Compounds, they were accompanied with 1 nM aldosterone. The well group of Control group 1 was added with dimethyl sulfoxide, and the well group of Control group 2 was added with 1 nM aldosterone. After addition, cultivation was carried out overnight.\nOn the next day, the culture media was removed, and then luciferase substrate (Wako Pure Chemical Industries, Ltd.) was prepared in accordance with the attached document and were added to each well by 50 microliters. Stirring was conducted for approximately 30 minutes, and the amount of luminescence was measured for each well by using Analyst (Molecular Devices), to obtain luciferase activity. A graph which plots relative luciferase activity values, when the luciferase activity value of Control group 1 was taken as 0% and the luciferase activity value of Control group 2 was taken as 100%, for each of the amount of the test compound addition group was made."}, "[2]": {"assay": "Plasma concentration after intragastric administration to cynomolgus monkey (LC-MS/MS)", "format": "in vivo", "conditions": "male cynomolgus monkey, fasted, 3 mg/kg intragastric in 0.5% MC; for AUC: Area under the plasma concentration versus time curve: blood up to 48 h, noncompartment model; for Cmax: po, plasma, read-out: Cmax: Maximum concentration", "description": "Cynomolgus monkey (male) was used, and was fasted from the day before the administration of the Test Compound.\nAdministration samples were prepared by adding 0.5% MC (methyl cellulose) solution to the Test Compound, so that the dose becomes 3 mg/2 mL/kg. Each of the administration samples was administered intragastrically to the cynomolgus monkey by using a tube. After the samples were administered, approximately 5 mL of 0.5% MC was administered. For each of the administration samples, a group of two cynomolgus monkeys was administered.\nWith respect to collection of blood, it was conducted by collecting approximately 0.5 mL of blood from femoral vein using a glass syringe treated with heparin, before administration, and 30 minutes, 1, 2, 4, 6, 8, 24 and 48 hours after administration. Blood was centrifuged (1,700×g, 15 min, 4° C.) to obtain plasma. Plasma was stored in a freezer (−20° C.) until pretreatment.\nPreparation of standard solution and internal standard (“IS”) solution: Each of the Test Compounds was dissolved in DMSO (dimethyl sulfoxide) to prepare a solution of 10 mM each. Each of the compound solution was diluted with acetonitrile, and thus standard solution was prepared. Further, niflumic acid (Wako Pure Chemical Industries, Ltd.) was dissolved in DMSO at the concentration of 2 mM, followed by dilution with acetonitrile to prepare an IS solution of 2 μM.\nPretreatment of plasma samples: 20 μL of plasma sample was collected, and then 25 μL of purified water, 100 μL of acetonitrile, and 100 μL of methanol was added. For the preparation of a calibration curve, 25 μL of purified water, 20 μL of each of the standard solutions (acetonitrile solution), 80 μL of acetonitrile, and 100 μL of methanol were added to 20 μL of blank plasma. 40 μL of the acetonitrile solution of IS was added to all of the samples, and then the samples were stirred, filtered by suction using Captiva filter plate (Varian, Inc.), and then the filtrate was used as the sample for LC-MS/MS analysis.\nQuantitative Determination of Test Compound: Concentration in plasma was analyzed by LC-MS/MS method for each Test Compound.\n[HPLC Analysis Conditions]\n• HPLC: WATERS 2795 (Waters Corporation); • Column: CAPCELL PAK C8, 2.0 mm I.D.×50 mm, 5 μm (Shiseido Co., Ltd.) • Mobile Phase: A=5 mM ammonium acetate aqueous solution, B=acetonitrile [MS/MS Analysis Conditions] • MS: Quattro micro API (Waters Corporation) • Ionization Method: Electrospray Ionization (“ESI”) • Ionization Mode: Positive • Detection Mode: MRM • Analysis: Pharmacokinetic parameter was calculated from concentration of each of the drugs in plasma, by using WinNonlin Professional (Ver. 4.0.1, Pharsight Corporation). Here, noncompartment model was used as the model for parameter calculation. (Results)"}}}
{"smiles": "Cc1c(C(=O)Nc2ccc(S(C)(=O)=O)cc2)cn([C@H](C)[C@H](C)O)c1-c1ccccc1C(F)(F)F", "note": "(single isomer, unassigned) [Example 1-isomer A]", "values": [{"measurement": "IC50", "setting": "[1]", "value": 2.9, "unit": "nM"}, {"measurement": "Imax", "setting": "[1]", "value": 117, "unit": "%"}]}
{"smiles": "Cc1c(C(=O)Nc2ccc(S(C)(=O)=O)cc2)cn([C@H](C)[C@H](C)O)c1-c1ccc(F)cc1Cl", "note": "(single isomer, unassigned) [Example 4-isomer B]", "values": [{"measurement": "IC50", "setting": "[1]", "value": "> 1000", "unit": "nM"}]}
{"smiles": "Cc1c(C(=O)Nc2ccc(S(C)(=O)=O)cc2)cn([C@H](C)[C@H](C)O)c1-c1ccc(Cl)cc1C(F)(F)F", "note": "(atropisomer, axis not shown) [Example 3, 5-[4-Chloro-2-(trifluoromethyl)phenyl]-1-[(1R,2S)-2-hydroxy-1-methylpropyl]-4-methyl-N-[4-(methylsulfonyl)phenyl]-1H-pyrrole-3-carboxamide]", "values": [{"measurement": "IC50", "setting": "[1]", "value": 6.7, "unit": "nM"}, {"measurement": "Imax", "setting": "[1]", "value": 95, "unit": "%"}]}
{"smiles": "Cc1c(C(=O)Nc2ccc(S(C)(=O)=O)cc2)cn([C@H](C)[C@H](C)O)c1-c1ccccc1C(F)(F)F", "note": "[Example 1, 1-[(1R,2S)-2-Hydroxy-1-methylpropyl]-4-methyl-N-[4-(methylsulfonyl)phenyl]-5-[2-(trifluoromethyl)phenyl]-1H-pyrrole-3-carboxamide]", "values": [{"measurement": "IC50", "setting": "[1]", "value": 6.6, "unit": "nM"}, {"measurement": "Imax", "setting": "[1]", "value": 115, "unit": "%"}]}
{"smiles": "Cc1c(C(=O)Nc2ccc(S(C)(=O)=O)cc2)cn([C@H](C)[C@H](C)O)c1-c1ccc(Cl)cc1C(F)(F)F", "note": "(single isomer, unassigned) [Example 3-isomer B]", "values": [{"measurement": "IC50", "setting": "[1]", "value": "> 1000", "unit": "nM"}]}
{"smiles": "Cc1c(C(=O)Nc2ccc(S(C)(=O)=O)cc2)cn([C@H](C)[C@H](C)O)c1-c1ccc(Cl)cc1C(F)(F)F", "note": "(single isomer, unassigned) [Example 3-isomer A]", "values": [{"measurement": "AUC: Area under the plasma concentration versus time curve", "setting": "[2]", "value": 42490, "unit": "ng·h/mL"}, {"measurement": "Cmax", "setting": "[2]", "value": 1440, "unit": "ng/mL"}, {"measurement": "IC50", "setting": "[1]", "value": 4.6, "unit": "nM"}, {"measurement": "Imax", "setting": "[1]", "value": 108, "unit": "%"}]}
{"smiles": "Cc1c(C(=O)Nc2ccc(S(C)(=O)=O)cc2)cn(CCO)c1-c1ccccc1C(F)(F)F", "note": "(racemic) [Comparative compound, 1-(2-hydroxyethyl)-4-methyl-N-[4-(methylsulfonyl)phenyl]-5-[2-(trifluoromethyl)phenyl]-1H-pyrrole-3-carboxamide, reference compound]", "values": [{"measurement": "AUC: Area under the plasma concentration versus time curve", "setting": "[2]", "value": 4090, "unit": "ng·h/mL"}, {"measurement": "Cmax", "setting": "[2]", "value": 230, "unit": "ng/mL"}, {"measurement": "IC50", "setting": "[1]", "value": 5.3, "unit": "nM"}, {"measurement": "Imax", "setting": "[1]", "value": 105, "unit": "%"}]}
{"smiles": "Cc1c(C(=O)Nc2ccc(S(C)(=O)=O)cc2)cn([C@H](C)[C@H](C)O)c1-c1ccc(F)cc1Cl", "note": "[Example 4, 5-(2-Chloro-4-fluorophenyl)-1-[(1R,2S)-2-hydroxy-1-methylpropyl]-4-methyl-N-[4-(methylsulfonyl)phenyl]-1H-pyrrole-3-carboxamide]", "values": [{"measurement": "IC50", "setting": "[1]", "value": 10, "unit": "nM"}, {"measurement": "Imax", "setting": "[1]", "value": 106, "unit": "%"}]}
{"smiles": "Cc1c(C(=O)Nc2ccc(S(C)(=O)=O)cc2)cn([C@H](C)[C@H](C)O)c1-c1ccc(F)cc1C(F)(F)F", "note": "[Example 2, 5-[4-Fluoro-2-(trifluoromethyl)phenyl]-1-[(1R,2S)-2-hydroxy-1-methylpropyl]-4-methyl-N-[4-(methylsulfonyl)phenyl]-1H-pyrrole-3-carboxamide]", "values": [{"measurement": "IC50", "setting": "[1]", "value": 6.2, "unit": "nM"}, {"measurement": "Imax", "setting": "[1]", "value": 88, "unit": "%"}]}
{"smiles": "Cc1c(C(=O)Nc2ccc(S(C)(=O)=O)cc2)cn([C@H](C)[C@H](C)O)c1-c1ccccc1C(F)(F)F", "note": "(single isomer, unassigned) [Example 1-isomer B]", "values": [{"measurement": "IC50", "setting": "[1]", "value": "> 1000", "unit": "nM"}]}
{"smiles": "Cc1c(C(=O)Nc2ccc(S(C)(=O)=O)cc2)cn([C@H](C)[C@H](C)O)c1-c1ccc(F)cc1Cl", "note": "(single isomer, unassigned) [Example 4-isomer A]", "values": [{"measurement": "IC50", "setting": "[1]", "value": 11, "unit": "nM"}, {"measurement": "Imax", "setting": "[1]", "value": 103, "unit": "%"}]}
{"smiles": "Cc1c(C(=O)Nc2ccc(S(C)(=O)=O)cc2)cn([C@H](C)[C@H](C)O)c1-c1ccc(F)cc1C(F)(F)F", "note": "(single isomer, unassigned) [Example 2-isomer A]", "values": [{"measurement": "AUC: Area under the plasma concentration versus time curve", "setting": "[2]", "value": 30320, "unit": "ng·h/mL"}, {"measurement": "Cmax", "setting": "[2]", "value": 1280, "unit": "ng/mL"}, {"measurement": "IC50", "setting": "[1]", "value": 3.8, "unit": "nM"}, {"measurement": "Imax", "setting": "[1]", "value": 103, "unit": "%"}]}
{"smiles": "Cc1c(C(=O)Nc2ccc(S(C)(=O)=O)cc2)cn([C@H](C)[C@H](C)O)c1-c1ccc(F)cc1C(F)(F)F", "note": "(single isomer, unassigned) [Example 2-isomer B]", "values": [{"measurement": "IC50", "setting": "[1]", "value": "> 1000", "unit": "nM"}]}
